Measurements as given in patent publication US20240228555A9, “ANTIMICROBIAL PEPTIDOMIMETICS” (Basilea Pharmaceutica International AG, Allschwil, priority 2020, published 2024).
Where a SMILES comes first, the peptide text is derived from it.

What was measured:
[1] = tested on: human red blood cells (hRBC); assay type: cell-based; conditions: red cells of human, 1 h, 0.2 g/L
Procedure, shortened: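 PBS-washed human erythrocytes (20% v/v) were incubated with compounds at 200 μg/mL for 1 h at 37° C with shaking. Supernatant OD540 was read after 8-fold dilution; hemolysis % = OD540 peptide / OD540 of the 100% lysis control (2.5% Triton X-100 in H2O) ×100, with PBS as 0%.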

[2] = tested on: Escherichia coli ATCC 25922; conditions: ATCC 25922
Procedure, shortened: (§1)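 Activity is measured against peptides serially diluted two-fold in water with 0.002% final Polysorbate 80. The cells are in cation-adjusted MHII broth at roughly 5×10^5 CFU/mL, prepared from a 0.5 McFarland suspension in 0.85% NaCl.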

[3] = tested on: Escherichia coli MCR-1 Af 45; conditions: Mueller-Hinton broth II, no visible growth after 18-20 hours at 35° C.
Procedure, shortened: as §1

[4] = tested on: Klebsiella pneumoniae SSI3010; conditions: SSI3010
Procedure, shortened: as §1

CC[C@H](C)[C@H](NC(=O)[C@@H](NC(=O)[C@@H]1C[C@@H](O)CN1C(=O)[C@@H](N)C(C)C)[C@@H](C)CC)C(=O)N[C@@H](Cc1ccc(O)cc1)C(=O)N[C@@H]1C(=O)N[C@@H](CC(N)=O)C(=O)N[C@@H](CCCNC(=N)N)C(=O)N[C@@H](CCN)C(=O)N[C@@H](CO)C(=O)N[C@H](CCN)C(=O)N[C@@H]([C@@H](C)CC)C(=O)N[C@H](C(=O)N[C@@H](CCN)C(=O)N[C@@H](CCCN)C(=O)N[C@@H](Cc2ccc(O)cc2)C(=O)O)CSSC1(C)C [Example 96, Val-Hyp-Ile-Ile-Tyr-Pen-Asn-Arg-Dab-Ser-^DDab-Ile-Cys-Dab-Orn-Tyr] (HELM PEPTIDE1{V.[Hyp].I.I.Y.[Pen].N.R.[Dab].S.[NCC[C@@H](N[*:1])C(=O)[*:2]].I.C.[Dab].[Orn].Y}$PEPTIDE1,PEPTIDE1,6:R3-13:R3$$$V2.0)
Hemolysis at 0.2 g/L [1]: <1% | Escherichia coli ATCC 25922 MIC [2]: 0.25 µg/mL | Escherichia coli MCR-1 Af 45 MIC [3]: 0.25 µg/mL | Klebsiella pneumoniae SSI3010 MIC [4]: 0.5 µg/mL

CC[C@H](C)[C@H](NC(=O)[C@@H](NC(=O)[C@@H]1C[C@@H](O)CN1C(=O)[C@@H](N)C(C)C)[C@@H](C)CC)C(=O)N[C@@H](Cc1ccc(O)cc1)C(=O)N[C@@H]1C(=O)N[C@@H](CC(N)=O)C(=O)N[C@@H](CCCNC(=N)N)C(=O)N[C@@H](CCN)C(=O)N[C@@H]([C@@H](C)O)C(=O)N[C@H](CCN)C(=O)N[C@@H]([C@@H](C)CC)C(=O)N[C@H](C(=O)N[C@@H](CCN)C(=O)N[C@@H](CCCN)C(=O)N[C@@H](Cc2ccc(O)cc2)C(=O)O)CSSC1(C)C [Example 97, Val-Hyp-Ile-Ile-Tyr-Pen-Asn-Arg-Dab-Thr-^DDab-Ile-Cys-Dab-Orn-Tyr] (HELM PEPTIDE1{V.[Hyp].I.I.Y.[Pen].N.R.[Dab].T.[NCC[C@@H](N[*:1])C(=O)[*:2]].I.C.[Dab].[Orn].Y}$PEPTIDE1,PEPTIDE1,6:R3-13:R3$$$V2.0)
Hemolysis at 0.2 g/L [1]: <1% | Escherichia coli ATCC 25922 MIC [2]: 0.25 µg/mL | Escherichia coli MCR-1 Af 45 MIC [3]: 0.25 µg/mL | Klebsiella pneumoniae SSI3010 MIC [4]: 0.5 µg/mL

CC[C@H](C)[C@H](NC(=O)[C@@H](NC(=O)[C@@H]1C[C@@H](O)CN1C(=O)[C@@H](N)C(C)C)[C@@H](C)CC)C(=O)N[C@@H](Cc1ccc(O)cc1)C(=O)N[C@@H]1C(=O)N[C@@H](CC(N)=O)C(=O)N[C@@H](CCCNC(=N)N)C(=O)N[C@@H](CCN)C(=O)N[C@@H]([C@@H](C)O)C(=O)N[C@H](CCN)C(=O)N[C@@H](CCCNC(N)=O)C(=O)N[C@H](C(=O)N[C@@H](CCN)C(=O)N[C@@H](CCCNC(=N)N)C(=O)N[C@@H](Cc2ccc(O)cc2)C(=O)O)CSSC1(C)C [Example 98, Val-Hyp-Ile-Ile-Tyr-Pen-Asn-Arg-Dab-Thr-^DDab-Cit-Cys-Dab-Arg-Tyr] (HELM PEPTIDE1{V.[Hyp].I.I.Y.[Pen].N.R.[Dab].T.[NCC[C@@H](N[*:1])C(=O)[*:2]].[Cit].C.[Dab].R.Y}$PEPTIDE1,PEPTIDE1,6:R3-13:R3$$$V2.0)
Hemolysis at 0.2 g/L [1]: <1% | Escherichia coli ATCC 25922 MIC [2]: 0.25 µg/mL | Escherichia coli MCR-1 Af 45 MIC [3]: 0.25 µg/mL | Klebsiella pneumoniae SSI3010 MIC [4]: 0.5 µg/mL

CC[C@H](C)[C@@H]1NC(=O)[C@@H](NC(=O)[C@H](Cc2ccc(O)cc2)NC(=O)[C@@H](NC(=O)[C@@H](NC(=O)[C@@H]2C[C@@H](O)CN2C(=O)[C@@H](N)C(C)C)[C@@H](C)CC)[C@@H](C)O)C(C)(C)SSC[C@@H](C(=O)N[C@@H](CCN)C(=O)N[C@@H](CO)C(=O)N[C@@H](Cc2ccc(O)cc2)C(=O)O)NC(=O)[C@H](CCCCN)NC(=O)[C@@H](CCN)NC(=O)[C@H]([C@@H](C)O)NC(=O)[C@H](CCN)NC(=O)[C@H](CCCNC(=N)N)NC1=O [Example 99, Val-Hyp-Ile-Thr-Tyr-Pen-Ile-Arg-Dab-Thr-^DDab-Lys-Cys-Dab-Ser-Tyr] (HELM PEPTIDE1{V.[Hyp].I.T.Y.[Pen].I.R.[Dab].T.[NCC[C@@H](N[*:1])C(=O)[*:2]].K.C.[Dab].S.Y}$PEPTIDE1,PEPTIDE1,6:R3-13:R3$$$V2.0)
Hemolysis at 0.2 g/L [1]: <1% | Escherichia coli ATCC 25922 MIC [2]: 0.125 µg/mL | Escherichia coli MCR-1 Af 45 MIC [3]: 0.125 µg/mL | Klebsiella pneumoniae SSI3010 MIC [4]: 0.25 µg/mL

CC[C@H](C)[C@H](NC(=O)[C@@H](NC(=O)[C@@H]1C[C@@H](N)CN1C(=O)[C@@H](N)C(C)C)[C@@H](C)CC)C(=O)N[C@@H](Cc1ccc(O)cc1)C(=O)N[C@@H]1C(=O)N[C@@H](CC(N)=O)C(=O)N[C@@H](CCCNC(=N)N)C(=O)N[C@@H](CCN)C(=O)N[C@@H]([C@@H](C)O)C(=O)N[C@H](CCN)C(=O)N[C@@H](CCCCN)C(=O)N[C@H](C(=O)N[C@@H](CCN)C(=O)N[C@@H](CO)C(=O)N[C@@H](Cc2ccc(O)cc2)C(=O)O)CSSC1(C)C [Example 100, Val-Pro((4R)NH2)-Ile-Ile-Tyr-Pen-Asn-Arg-Dab-Thr-^DDab-Lys-Cys-Dab-Ser-Tyr] (HELM PEPTIDE1{V.[N[C@@H]1C[C@@H](C(=O)[*:2])N([*:1])C1].I.I.Y.[Pen].N.R.[Dab].T.[NCC[C@@H](N[*:1])C(=O)[*:2]].K.C.[Dab].S.Y}$PEPTIDE1,PEPTIDE1,6:R3-13:R3$$$V2.0)
Hemolysis at 0.2 g/L [1]: <1% | Escherichia coli ATCC 25922 MIC [2]: 0.25 µg/mL | Escherichia coli MCR-1 Af 45 MIC [3]: 0.0625 µg/mL | Klebsiella pneumoniae SSI3010 MIC [4]: 0.25 µg/mL

CC[C@H](C)[C@H](NC(=O)[C@@H](NC(=O)[C@@H]1C[C@@H](O)CN1C(=O)[C@@H](N)C(C)C)[C@@H](C)CC)C(=O)N[C@@H](Cc1ccc(O)cc1)C(=O)N[C@@H]1C(=O)N[C@@H](CC(N)=O)C(=O)N[C@@H](CCCNC(=N)N)C(=O)N[C@@H](CCN)C(=O)N[C@@H]([C@@H](C)O)C(=O)N[C@H](CCN)C(=O)N[C@@H](CO)C(=O)N[C@H](C(=O)N[C@@H](CCN)C(=O)N[C@@H](CCCNC(=N)N)C(=O)N[C@@H](Cc2ccc(O)cc2)C(=O)O)CSSC1(C)C [Example 101, Val-Hyp-Ile-Ile-Tyr-Pen-Asn-Arg-Dab-Thr-^DDab-Cys-Dab-Arg-Tyr]
Hemolysis at 0.2 g/L [1]: <1% | Escherichia coli ATCC 25922 MIC [2]: 0.125 µg/mL | Escherichia coli MCR-1 Af 45 MIC [3]: 0.125 µg/mL | Klebsiella pneumoniae SSI3010 MIC [4]: 0.25 µg/mL

CC[C@H](C)[C@H](NC(=O)[C@@H]1C[C@@H](N)CN1C(=O)[C@@H](N)C(C)C)C(=O)N[C@H](C(=O)N[C@@H](Cc1ccc(O)cc1)C(=O)N[C@@H]1C(=O)N[C@@H](CC(N)=O)C(=O)N[C@@H](CCCNC(=N)N)C(=O)N[C@@H](CCN)C(=O)N[C@@H]([C@@H](C)O)C(=O)N[C@H](CCN)C(=O)N[C@@H](CCCNC(N)=O)C(=O)N[C@H](C(=O)N[C@@H](CCN)C(=O)N[C@@H](CO)C(=O)N[C@@H](Cc2ccc(O)cc2)C(=O)O)CSSC1(C)C)[C@@H](C)O [Example 102, Val-Pro((4R)NH2)-Ile-Thr-Tyr-Pen-Asn-Arg-Dab-Thr-^DDab-Cit-Cys-Dab-Ser-Tyr] (HELM PEPTIDE1{V.[N[C@@H]1C[C@@H](C(=O)[*:2])N([*:1])C1].I.T.Y.[Pen].N.R.[Dab].T.[NCC[C@@H](N[*:1])C(=O)[*:2]].[Cit].C.[Dab].S.Y}$PEPTIDE1,PEPTIDE1,6:R3-13:R3$$$V2.0)
Hemolysis at 0.2 g/L [1]: <1% | Escherichia coli ATCC 25922 MIC [2]: 0.25 µg/mL | Escherichia coli MCR-1 Af 45 MIC [3]: 0.125 µg/mL | Klebsiella pneumoniae SSI3010 MIC [4]: 0.25 µg/mL

CC[C@H](C)[C@H](NC(=O)[C@@H]1C[C@@H](N)CN1C(=O)[C@@H](N)C(C)C)C(=O)N[C@H](C(=O)N[C@@H](Cc1ccc(O)cc1)C(=O)N[C@@H]1C(=O)N[C@@H](CC(N)=O)C(=O)N[C@@H](CCCNC(=N)N)C(=O)N[C@@H](CCN)C(=O)N[C@@H]([C@@H](C)O)C(=O)N[C@H](CCN)C(=O)N[C@@H](CCCCN)C(=O)N[C@H](C(=O)N[C@@H](CO)C(=O)N[C@@H](CO)C(=O)N[C@@H](Cc2ccc(O)cc2)C(=O)O)CSSC1(C)C)[C@@H](C)O [Example 103, Val-Pro((4R)NH2)-Ile-Thr-Tyr-Pen-Asn-Arg-Dab-Thr-^DDab-Lys-Cys-Ser-Ser-Tyr] (HELM PEPTIDE1{V.[N[C@@H]1C[C@@H](C(=O)[*:2])N([*:1])C1].I.T.Y.[Pen].N.R.[Dab].T.[NCC[C@@H](N[*:1])C(=O)[*:2]].K.C.S.S.Y}$PEPTIDE1,PEPTIDE1,6:R3-13:R3$$$V2.0)
Hemolysis at 0.2 g/L [1]: <1% | Escherichia coli ATCC 25922 MIC [2]: 0.5 µg/mL | Escherichia coli MCR-1 Af 45 MIC [3]: 0.125 µg/mL | Klebsiella pneumoniae SSI3010 MIC [4]: 0.5 µg/mL

CC[C@H](C)[C@@H]1NC(=O)[C@@H](NC(=O)[C@H](Cc2ccc(O)cc2)NC(=O)[C@@H](NC(=O)[C@@H](NC(=O)[C@@H]2C[C@@H](O)CN2C(=O)[C@@H](N)C(C)C)[C@@H](C)CC)[C@@H](C)O)C(C)(C)SSC[C@@H](C(=O)N[C@@H](CO)C(=O)N[C@@H](CCCNC(=N)N)C(=O)N[C@@H](Cc2ccc(O)cc2)C(=O)O)NC(=O)[C@H](CCCCN)NC(=O)[C@@H](CCN)NC(=O)[C@H]([C@@H](C)O)NC(=O)[C@H](CCN)NC(=O)[C@H](CCCNC(=N)N)NC1=O [Example 104, Val-Hyp-Ile-Thr-Tyr-Pen-Ile-Arg-Dab-Thr-^DDab-Lys-Cys-Ser-Arg-Tyr] (HELM PEPTIDE1{V.[Hyp].I.T.Y.[Pen].I.R.[Dab].T.[NCC[C@@H](N[*:1])C(=O)[*:2]].K.C.S.R.Y}$PEPTIDE1,PEPTIDE1,6:R3-13:R3$$$V2.0)
Hemolysis at 0.2 g/L [1]: <1% | Escherichia coli ATCC 25922 MIC [2]: 0.125 µg/mL | Escherichia coli MCR-1 Af 45 MIC [3]: 0.125 µg/mL | Klebsiella pneumoniae SSI3010 MIC [4]: 0.25 µg/mL
